Assay results as given in PubChem BioAssay (NCI).
Values joined by “and” are separate entries in the source; they are usually repeats but may differ in a detail not shown here. Identical values can stand only once.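 All cell lines were grown in 96-well plates and treated with compound for 48 hours. GI50: concentration for 50% inhibition of growth. At the TGI there is no net growth.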

What was measured:
Assay in all cases: NCI anticancer screen, dose series, 48 h
HT29 colon = system: HT29 colon
SF-295 CNS = system: SF-295 CNS
HS 578T breast = system: HS 578T breast
A498 renal = system: A498 renal
CCRF-CEM leukemia = system: CCRF-CEM leukemia
HOP-92 NSCLC = system: HOP-92 NSCLC
HOP-62 NSCLC = system: HOP-62 NSCLC
NCI-H522 lung = system: NCI-H522 lung
OVCAR-8 ovarian = system: OVCAR-8 ovarian
T-47D breast = system: T-47D breast

SMILES	TGI (HT29 colon) [µM]	TGI (SF-295 CNS) [µM]	TGI (HS 578T breast) [µM]	TGI (A498 renal)	TGI (CCRF-CEM leukemia) [µM]	TGI (HOP-92 NSCLC)	TGI (HOP-62 NSCLC) [µM]	TGI (NCI-H522 lung) [µM]	TGI (OVCAR-8 ovarian) [µM]	TGI (T-47D breast) [µM]	GI50 (HT29 colon) [µM]	GI50 (SF-295 CNS) [µM]	GI50 (HS 578T breast) [µM]	GI50 (A498 renal)	GI50 (CCRF-CEM leukemia)	GI50 (HOP-92 NSCLC)	GI50 (HOP-62 NSCLC)	GI50 (NCI-H522 lung) [µM]	GI50 (OVCAR-8 ovarian)	GI50 (T-47D breast) [µM]
COc1ccc(Oc2cnn(C(Br)(Br)C(C)=O)c(=O)c2Br)cc1	48.4	51.6	> 71.6	59.9 µM	4.57	29.4 µM	35.5	14.7	27	61	–	–	–	–	–	–	–	–	–	–
CCOC(=O)C1=CC(C)(C(=O)OCC)Nc2c(nc(N)[nH]c2=O)N1 (centres undefined)	> 10	> 10	> 10	> 10 µM	> 10	> 10 µM	> 10	> 10	> 10	> 10	–	–	–	–	–	–	–	–	–	–
COc1ccc(-n2nc(C)c3c(Nc4ccc(NC(=O)Nc5ccc(Cl)c(C(F)(F)F)c5)cc4)ncnc32)cc1	4.17	3.49	4.2	5.67 µM	> 100	5.2 µM	3.66	3.65	11.7	5.41	1.8	1.58	1.58	2.09 µM	2.2 µM	1.81 µM	1.83 µM	1.71	2.84 µM	1.71
O=C1c2cccc(O)c2C(=O)c2c(OC3OC(CO)C(O)C(O)C3O)cccc21 (centres undefined)	> 100	> 100	58.1	> 100 µM	–	> 100 µM	> 100	40.5	> 100	49.1	–	–	–	–	–	–	–	–	–	–
O=C(CC(C(=O)c1ccco1)c1ccco1)c1ccco1 (centres undefined)	> 100	> 100	> 100	> 100 µM	> 100	> 100 µM	> 100	> 100	> 100	> 100	–	–	–	–	–	–	–	–	–	–
O=S1(=O)c2cnccc2NC(=NCc2ccccc2)N1c1ccccc1	> 100	> 100	> 100	> 100 µM	> 100	> 100 µM	> 100	> 100	> 100	> 100	–	–	–	–	–	–	–	–	–	–
CC(C)C1=C(O)C2=C(C(=O)C1=O)C1(C)CCCC(C)(C)C1C(O)C2OC=O (centres undefined)	23.2	29.3	98.8	35.1 µM	8.47	20.1 µM	> 100	27.5	20.1	27.9	–	–	–	–	–	–	–	–	–	–
CC(=O)Oc1c(C)c(C)c2c(c1C)CCC(C)(CC(=O)OCCCCCCCCCCC[P+](c1ccccc1)(c1ccccc1)c1ccccc1)O2 (centres undefined)	2.29	1.09	3.28	2 µM	–	–	–	0.666	–	0.736	0.707	0.264	0.413	0.385 µM	–	–	–	0.21	–	0.0727
COC1C(O)C(O[C@H]2CC[C@@]3(C)C(CC[C@@H]4[C@@H]3CC[C@]3(C)[C@@H](C(C)OC5OC(CO)C(O)C(O)C5O)CC[C@]43O)C2)OC(C)C1OC1OC(CO)C(O)C(O)C1O (some centres undefined)	> 100	> 100	> 100	> 100 µM	> 100	> 100 µM	> 100	> 100	> 100	> 100	–	–	–	–	–	–	–	–	–	–
CN(C)CCCNC(=O)c1c(O)c2ccccc2n(C)c1=O	> 100	> 100	> 100	> 100 µM	> 100	80.7 µM	> 100	> 100	> 100	> 100	–	–	–	–	–	–	–	–	–	–
O=S1SC(=S)C2C=CC=CC21 (centres undefined)	> 100	> 100	> 100	> 100 µM	39	> 100 µM	–	> 100	> 100	> 100	–	–	–	–	–	–	–	–	–	–
Nc1ccc(-c2nn3c(COc4ccc(Cl)cc4)nnc3s2)cc1	> 100	> 100	> 100	–	> 100	> 100 µM	> 100	> 100	> 100	> 100	–	–	–	–	10 µM	98 µM	20.2 µM	–	–	–
CCOC(=O)c1c(SCCN2CCOCC2)n(-c2ccccc2)c(=S)n(-c2ccccc2)c1=O	34.9	61.2	87.4	–	99	> 100 µM	–	> 100	> 100	> 100	–	–	–	–	–	–	–	–	–	–
CC1(C)CC(C#Cc2ccccc2)CC(C)(C)N1O	29.4	35.1	44.9	–	> 100	45 µM	32.7	–	64	63.8	–	–	–	–	–	–	–	–	–	–
O=C1CS(=O)(=O)C(c2cccc(Oc3ccccc3)c2)N1c1cc(Cl)ccc1Cl (centres undefined)	47.8	62.1	> 100	–	> 100	38.8 µM	–	56	43.9	53.2	–	–	–	–	–	–	–	–	–	–
CC(=O)n1nc(-c2ccccc2)n(/N=C/c2ccc([N+](=O)[O-])o2)c1=O	21.8	47.9	38	45 µM	6.55	35.9 µM	19.6	7.15	33.3	44.5	–	–	–	–	–	–	–	–	–	–
C/C(=C\CO)CC/C=C(\C)CNc1ccc([N+](=O)[O-])cc1	> 100	> 100	71.6	–	–	–	> 100	66.8	> 100	80	–	–	–	–	–	–	–	–	–	–
CCN(CCCl)c1cc(CN(C)C)cc(NC(=O)c2ccc(C(=O)Nc3cccc(CN(C)C)c3)cc2)c1	6.87	13.2	0.671	7.33 µM	0.669	3.66 µM	10.8	0.042	12.8	10.1	–	–	–	–	–	–	–	–	–	–
O=C(CC(=O)Nc1ccccc1)NNC(c1cc(N=Nc2ccc(Br)cc2)ccc1O)P(O)O (centres undefined)	> 10	> 10	> 10	8.72 µM	8.25	> 10 µM	> 10	> 10	> 10	> 10	–	–	–	–	–	–	–	–	–	–
Nc1nc(Nc2ccccc2)sc1C(=O)c1ccco1	41.9	–	40.8	39.6 µM	17.1	82.6 µM	67.8	–	–	41.4	–	–	–	–	–	–	–	–	–	–
COc1cc2[nH]c(-c3ccccc3)cc(=O)c2c(OC)c1OC	> 100	> 100	> 100	> 100 µM	> 100	–	> 100	> 100	> 100	> 100	–	–	–	–	–	–	–	–	–	–

SMILES	TGI (HT29 colon) [µM]	TGI (SF-295 CNS) [µM]	TGI (HS 578T breast) [µM]	TGI (A498 renal)	TGI (CCRF-CEM leukemia) [µM]	TGI (HOP-92 NSCLC)	TGI (HOP-62 NSCLC) [µM]	TGI (NCI-H522 lung) [µM]	TGI (OVCAR-8 ovarian) [µM]	TGI (T-47D breast) [µM]	GI50 (HT29 colon) [µM]	GI50 (SF-295 CNS) [µM]	GI50 (HS 578T breast) [µM]	GI50 (A498 renal)	GI50 (CCRF-CEM leukemia)	GI50 (HOP-92 NSCLC)	GI50 (HOP-62 NSCLC)	GI50 (NCI-H522 lung) [µM]	GI50 (OVCAR-8 ovarian)	GI50 (T-47D breast) [µM]
CCN(CC)CCO/N=C1\CC[C@H]2[C@@H]3CCc4cc(OC)ccc4[C@H]3CC[C@]12C	2.07	3.78	7.36	9.28 µM	4.86	7.25 µM	3.73	7.02	7.95	7.13	–	–	–	–	–	–	–	–	–	–
COc1ccc(C2c3cc4c(cc3OC(NCCO)C2C)OCO4)cc1 (centres undefined)	43.5	89.1	59.3	48.8 µM	52.4	86.1 µM	> 100	47.8	–	> 100	–	–	–	–	–	–	–	–	–	–
CC(C)=CCC[C@@H](C)C1=C(O)C(N)=C(C)C(=O)C1=O	> 100	> 72.3	> 100	> 100 µM	> 100	> 100 µM	> 100	–	> 64.8	> 88.4	–	–	–	–	–	–	–	–	–	–
C[n+]1c(/C=C/c2ccc(O)c3ncccc23)[se]c2ccccc21	20.7	25.1	63.5	30.5 µM	4.22	22.3 µM	19.1	24.8	29.8	> 41.8	–	–	–	–	–	–	–	–	–	–
O=C(OCC1OC(n2nc(Cn3nnc(-c4cccnc4)n3)n(-c3cccc4ccccc34)c2=S)C(OC(=O)c2ccccc2)C1OC(=O)c1ccccc1)c1ccccc1 (centres undefined)	> 100	> 100	> 100	> 100 µM	> 100	> 100 µM	> 100	> 100	> 100	> 100	–	–	–	–	–	–	–	–	–	–
Cc1cc(O)c(-c2cc(O)c(C)cc2O)cc1O	> 53.1	31.2	> 72.2	41.8 µM	3.8	6.22 µM	32.6	12.2	16.7	5.26	–	–	–	–	–	–	–	–	–	–
CN1N=C(c2ccncc2)OC1c1ccccc1F (centres undefined)	> 100	> 100	> 100	> 100 µM	> 100	> 100 µM	> 100	> 100	> 100	> 100	–	–	–	–	–	–	–	–	–	–
Cc1cc(C)nc(NS(=O)(=O)c2ccc(NC(=O)c3cccc4c(NNc5ccc(S(=O)(=O)N=C(N)N)cc5)c5ccccc5nc34)cc2)n1	> 50	> 50	> 50	> 50 µM	> 50	> 50 µM	> 50	> 50	> 50	> 50	–	–	–	–	–	–	–	–	–	–
O=C(O)CN(CC(=O)O)C(C(=O)O)c1ccccc1 (centres undefined)	> 100	> 100	> 100	> 100 µM	> 100	> 100 µM	> 100	> 100	> 100	> 100	–	–	–	–	–	–	–	–	–	–
C=CCN1C(=O)/C(=C/c2ccc(C)cc2)N=C1SC1OC(COC(C)=O)C(OC(C)=O)C(OC(C)=O)C1OC(C)=O (centres undefined)	> 100	> 100	–	> 100 µM and 69.5 µM	–	> 100 µM and 53.4 µM	> 100	> 100	> 100	> 100	–	–	–	> 100 µM and 23.4 µM	12.4 µM and 2.25 µM	> 100 µM and 11.6 µM	5.17 µM and 47.4 µM	6.85	5.59 µM and 31.5 µM	–
Cc1cc(NS(=O)(=O)c2ccc(NC(NC(=O)C(C(F)(F)F)C(F)(F)F)(C(F)(F)F)C(F)(F)F)cc2)no1	> 100	> 100	> 100	–	> 100	> 100 µM	> 100	–	> 100	> 100	–	–	–	–	–	–	–	–	–	–
COc1cc([N+](=O)[O-])c(OC)c2c(Nc3ccc(S(=O)(=O)O)c4cc(S(=O)(=O)O)cc(S(=O)(=O)O)c34)cc(C)nc12	> 100	–	> 100	> 100 µM	> 100	–	> 100	> 100	> 100	> 100	–	–	–	–	–	–	–	–	–	–
O=[N+]([O-])c1ccc2c(c1)c(N=NC(=S)Nc1ccc(Cl)cc1)c(O)n2CN1CCOCC1	–	18.3	28.4	–	28	21.2 µM	–	23.2	23.4	20.8	–	–	–	–	–	–	–	–	–	–
C=CC(=O)N1C/C(=C\c2ccc(Cl)cc2)C(=O)/C(=C/c2ccc(Cl)cc2)C1	0.326	0.917	1.36	1.25 µM	–	4.25 µM	1.02	–	3.84	6.85	–	–	–	–	–	–	–	–	–	–
COc1nc2c(N3CCCC3)nc(N3CCNCC3)nc2nc1NCc1ccccc1	4.65	3.35	5.14	–	6.72	5.2 µM	2.29	2.54	10.7	3.19	–	–	–	–	–	–	–	–	–	–
O=C1C(C(O)(C(F)(F)F)C(F)(F)F)CCC1C(O)(C(F)(F)F)C(F)(F)F (centres undefined)	> 29.3	21	51.9	6.23 µM	> 100	0.245 µM	–	18.9	> 83.6	2.13	–	–	–	–	–	–	–	–	–	–
C/C(=N\Nc1nc2ccccc2s1)c1ccc2ccccc2n1	> 100	> 100	> 100	> 100 µM	63.7	–	> 100	> 100	> 100	53.5	–	–	–	–	–	–	–	–	–	–
COc1ccc(N2C(=O)C3c4[nH]c5ccccc5c4C4CCCCCCCCCC4C3C2=O)cc1 (centres undefined)	> 10	> 10	> 10	> 10 µM	> 10	–	> 10	> 10	> 10	> 10	–	–	–	–	–	–	–	–	–	–
CCOP(=O)(OCC)OC1CC(n2cc(C)c(=O)n(C)c2=O)OC1CO[Si](C)(C)C(C)(C)C (centres undefined)	> 100	> 100	> 100	–	> 100	–	> 100	> 100	> 100	> 100	–	–	–	–	–	–	–	–	–	–
O=C1OC(c2ccccc2)N(C(=O)c2ccccc2)C1Cc1ccc(OCc2ccccc2)cc1 (centres undefined)	–	–	> 100	33.5 µM	> 100	53.4 µM	> 100	–	> 100	> 100	–	–	–	–	–	–	–	–	–	–
COC(=O)N1N=C(c2ccccc2)C1c1ccccc1 (centres undefined)	> 100	–	> 100	> 100 µM	> 100	–	–	–	94	> 100	–	–	–	–	–	–	–	–	–	–
